A short description of series [1]: Solubility for water (microscopic images, HPLC of supernatants). It counts as physicochemical. The text has this:
High water solubility advantageously enhances pharmacokinetic properties such as bioavailability, membrane permeability, therapeutic activity, etc.

In series [2] the test system is keratinocyte (HaCaT Skin). The experiment in a line: Cytotoxicity by MTT assay on keratinocytes. The settings on record: up to a concentration of 15 μM.
Series [3] deals with Salmonella enterica [ATCC 13076]. In words: Antimicrobial activity, disk diffusion method on Muller-Hinton agar. The format is cell-based. As to conditions: in mm.
In series [4] the test system is Vibrio parahaemolyticus [ATCC 33844]. The description is as above. As to conditions: in mm. The format is cell-based.
Series [5] concerns Escherichia coli [ATCC 10798]. Described as above. It counts as cell-based. The settings on record: in mm.

Each structure is given as a SMILES string.

Turning to `CC(C)=CCC[C@](C)(O[C@@H]1O[C@H](CO)[C@@H](O)[C@H](O)[C@H]1O)[C@H]1CC[C@]2(C)[C@@H]1[C@H](O)C[C@@H]1[C@@]3(C)CC[C@H](O)C(C)(C)[C@@H]3CC[C@]12C` [CK, ginsenoside Compound K], the solubility for water entry in series [1] is “insoluble even at a low concentration”.
For the molecule `CC(C)=CCC[C@](C)(O)[C@H]1CC[C@]2(C)[C@@H]1[C@H](O)C[C@@H]1[C@@]3(C)CC[C@H](O[C@@H]4O[C@H](CO)[C@@H](O)[C@H](O)[C@H]4O)C(C)(C)[C@@H]3CC[C@]12C` [Rh2, 20(S)-protopanaxdiol-3-O-β-D-glucopyranoside], the solubility for water entry in series [1] is given as “insoluble even at a low concentration”. Moreover, in series [2], the “cytotoxicity on keratinocyte cell line” value is recorded as “showed cytotoxicity”.
For the molecule `CN(C)[C@@H]1C(=O)C(C(N)=O)=C(O)[C@@]2(O)C(=O)C3=C(O)c4c(O)cccc4[C@@](C)(O)[C@H]3C[C@@H]12` [Tetracyclin, tetracycline], the results for the Zone of inhibition in series [3], in series [4] and in series [5] were 30 ± 0.3, 25 ± 0.6 and 20 ± 0.1, respectively.

For the origin of these results see US11648208B2, “Nano complex comprising a nano drug delivery matrix; and a ginseng extract or a ginsenoside isolated therefrom” (priority 2016, dated 2023).
